In US20080039422A1, “Vitamin B12-Containing Compositions and Methods of Use” (Transition Therapeutics Inc., priority 2004, published 2008):

Assays:
[1] = Methylcobalamin-containing solutions; format: physicochemical
Method: A variety of solutions containing methylcobalamin (Me-Cbl) were tested. In one series of experiments, solutions containing ethanol, propylene glycol, or both ethanol and propylene glycol were challenged with 20 mg/ml Me-Cbl. In another series of experiments, the same solutions were challenged with 50 mg/ml Me-Cbl. The conditions were the same as those described for CN-Cbl. In both series, the excipients included: (a) 15% ethanol; (b) 20% ethanol; (c) 20% propylene glycol; (d) 40% propylene glycol; (e) 15% ethanol and 20% propylene glycol; and (f) 20% ethanol and 40% propylene glycol. Following suitable dilution, the absorbance at A340 was measured on Day 0, Day 1, and Day 2 (Table 7).

[2] = Methylcobalamin-containing solutions; format: physicochemical; remark: listed apart in the source

Q: Which “Conc of Me-Cbl” value ([1]; challenge 20 mg/mL, ethanol 0%, PG 20%, Day 0) does the source give for `C/C1=C2/[N-][C@H]([C@H](CC(N)=O)[C@@]2(C)CCC(=O)NC[C@H](C)OP(=O)([O-])O[C@H]2[C@@H](O)[C@@H](n3cnc4cc(C)c(C)cc43)O[C@@H]2CO)[C@]2(C)N=C(/C(C)=C3N=C(/C=C4N=C1[C@@H](CCC(N)=O)C\4(C)C)[C@@H](CCC(N)=O)[C@]\3(C)CC(N)=O)[C@@H](CCC(N)=O)[C@]2(C)CC(N)=O.[CH3-].[Co+3]` [Me-Cbl, methylcobalamin] here?
A: 23610 µg/mL

Q: And the “Conc of Me-Cbl” value ([1]; challenge 20 mg/mL, ethanol 0%, PG 20%, Day 0 reading)?
A: 17560 µM

Q: And the “Conc of Me-Cbl” value ([1]; challenge 20 mg/mL, ethanol 0%, PG 20%, Day 1)?
A: 24020 µg/mL

Q: And the “Conc of Me-Cbl” value ([1]; challenge 20 mg/mL, ethanol 0%, PG 40%, Day 0 reading)?
A: 17800 µM

Q: What about the “Conc of Me-Cbl” value ([1]; challenge 20 mg/mL, ethanol 20%, PG 40%, Day 0) of the same compound?
A: 22800 µg/mL

Q: And the “Conc of Me-Cbl” value ([1]; challenge 50 mg/mL, ethanol 20%, PG 0%, Day 1)?
A: 10470 µg/mL

Q: What about the “Conc of Me-Cbl” value ([1]; challenge 50 mg/mL, ethanol 20%, PG 40%, Day 0) of the same compound?
A: 57620 µg/mL

Q: And the “Conc of Me-Cbl” value ([1]; challenge 50 mg/mL, ethanol 20%, PG 40%, Day 0 reading)?
A: 42860 µM

Q: And the “Conc of Me-Cbl” value ([2]; challenge 20 mg/mL, ethanol 0%, PG 0%, Day 0)?
A: 17180 µg/mL

Q: What about the “Conc of Me-Cbl” value ([2]; challenge 20 mg/mL, ethanol 0%, PG 0%, Day 0 reading) of the same compound?
A: 12780 µM

Q: And the “Conc of Me-Cbl” value ([2]; challenge 20 mg/mL, ethanol 0%, PG 0%, Day 1)?
A: 14030 µg/mL

Q: What about the “Conc of Me-Cbl” value ([2]; challenge 20 mg/mL, ethanol 0%, PG 0%, Day 3) of the same compound?
A: 13180 µg/mL

Q: What about the “Conc of Me-Cbl” value ([2]; challenge 20 mg/mL, ethanol 0%, PG 20%, Day 3) of the same compound?
A: 23370 µg/mL

Q: And the “Conc of Me-Cbl” value ([2]; challenge 20 mg/mL, ethanol 0%, PG 40%, Day 0)?
A: 23940 µg/mL

Q: What about the “Conc of Me-Cbl” value ([2]; challenge 20 mg/mL, ethanol 0%, PG 40%, Day 1) of the same compound?
A: 24340 µg/mL

Q: And the “Conc of Me-Cbl” value ([2]; challenge 20 mg/mL, ethanol 0%, PG 40%, Day 3)?
A: 24500 µg/mL

Q: What about the “Conc of Me-Cbl” value ([2]; challenge 20 mg/mL, ethanol 15%, PG 0%, Day 0) of the same compound?
A: 22800 µg/mL

Q: And the “Conc of Me-Cbl” value ([2]; challenge 20 mg/mL, ethanol 15%, PG 0%, Day 0 reading)?
A: 16960 µM

Q: What about the “Conc of Me-Cbl” value ([2]; challenge 20 mg/mL, ethanol 15%, PG 0%, Day 1) of the same compound?
A: 12530 µg/mL

Q: And the “Conc of Me-Cbl” value ([2]; challenge 20 mg/mL, ethanol 15%, PG 0%, Day 3)?
A: 11120 µg/mL

Q: What about the “Conc of Me-Cbl” value ([2]; challenge 20 mg/mL, ethanol 15%, PG 20%, Day 0) of the same compound?
A: 22720 µg/mL

Q: And the “Conc of Me-Cbl” value ([2]; challenge 20 mg/mL, ethanol 15%, PG 20%, Day 0 reading)?
A: 16900 µM

Q: What about the “Conc of Me-Cbl” value ([2]; challenge 20 mg/mL, ethanol 15%, PG 20%, Day 1) of the same compound?
A: 23450 µg/mL

Q: And the “Conc of Me-Cbl” value ([2]; challenge 20 mg/mL, ethanol 15%, PG 20%, Day 3)?
A: 21910 µg/mL

Q: And the “Conc of Me-Cbl” value ([2]; challenge 20 mg/mL, ethanol 20%, PG 0%, Day 0)?
A: 23130 µg/mL

Q: What about the “Conc of Me-Cbl” value ([2]; challenge 20 mg/mL, ethanol 20%, PG 0%, Day 0 reading) of the same compound?
A: 17200 µM

Q: What about the “Conc of Me-Cbl” value ([2]; challenge 20 mg/mL, ethanol 20%, PG 0%, Day 1) of the same compound?
A: 9180 µg/mL

Q: What about the “Conc of Me-Cbl” value ([2]; challenge 20 mg/mL, ethanol 20%, PG 0%, Day 3) of the same compound?
A: 9180 µg/mL

Q: And the “Conc of Me-Cbl” value ([2]; challenge 20 mg/mL, ethanol 20%, PG 40%, Day 0 reading)?
A: 16960 µM

Q: And the “Conc of Me-Cbl” value ([2]; challenge 20 mg/mL, ethanol 20%, PG 40%, Day 1)?
A: 23860 µg/mL

Q: What about the “Conc of Me-Cbl” value ([2]; challenge 20 mg/mL, ethanol 20%, PG 40%, Day 3) of the same compound?
A: 24100 µg/mL

Q: What about the “Conc of Me-Cbl” value ([2]; challenge 50 mg/mL, ethanol 0%, PG 0%, Day 0) of the same compound?
A: 12660 µg/mL

Q: What about the “Conc of Me-Cbl” value ([2]; challenge 50 mg/mL, ethanol 0%, PG 0%, Day 0 reading) of the same compound?
A: 9410 µM

Q: What about the “Conc of Me-Cbl” value ([2]; challenge 50 mg/mL, ethanol 0%, PG 0%, Day 1) of the same compound?
A: 12860 µg/mL

Q: And the “Conc of Me-Cbl” value ([2]; challenge 50 mg/mL, ethanol 0%, PG 0%, Day 3)?
A: 12860 µg/mL

Q: What about the “Conc of Me-Cbl” value ([2]; challenge 50 mg/mL, ethanol 0%, PG 20%, Day 0) of the same compound?
A: 58220 µg/mL

Q: And the “Conc of Me-Cbl” value ([2]; challenge 50 mg/mL, ethanol 0%, PG 20%, Day 0 reading)?
A: 43310 µM

Q: And the “Conc of Me-Cbl” value ([2]; challenge 50 mg/mL, ethanol 0%, PG 20%, Day 1)?
A: 17990 µg/mL

Q: And the “Conc of Me-Cbl” value ([2]; challenge 50 mg/mL, ethanol 0%, PG 20%, Day 3)?
A: 17790 µg/mL

Q: What about the “Conc of Me-Cbl” value ([2]; challenge 50 mg/mL, ethanol 0%, PG 40%, Day 0) of the same compound?
A: 57210 µg/mL

Q: What about the “Conc of Me-Cbl” value ([2]; challenge 50 mg/mL, ethanol 0%, PG 40%, Day 0 reading) of the same compound?
A: 42560 µM

Q: What about the “Conc of Me-Cbl” value ([2]; challenge 50 mg/mL, ethanol 0%, PG 40%, Day 1) of the same compound?
A: 23210 µg/mL

Q: And the “Conc of Me-Cbl” value ([2]; challenge 50 mg/mL, ethanol 0%, PG 40%, Day 3)?
A: 22160 µg/mL

Q: And the “Conc of Me-Cbl” value ([2]; challenge 50 mg/mL, ethanol 15%, PG 0%, Day 0)?
A: 56610 µg/mL

Q: And the “Conc of Me-Cbl” value ([2]; challenge 50 mg/mL, ethanol 15%, PG 0%, Day 0 reading)?
A: 42110 µM

Q: And the “Conc of Me-Cbl” value ([2]; challenge 50 mg/mL, ethanol 15%, PG 0%, Day 1)?
A: 11930 µg/mL

Q: And the “Conc of Me-Cbl” value ([2]; challenge 50 mg/mL, ethanol 15%, PG 0%, Day 3)?
A: 11320 µg/mL

Q: And the “Conc of Me-Cbl” value ([2]; challenge 50 mg/mL, ethanol 15%, PG 20%, Day 0)?
A: 56610 µg/mL

Q: What about the “Conc of Me-Cbl” value ([2]; challenge 50 mg/mL, ethanol 15%, PG 20%, Day 0 reading) of the same compound?
A: 42110 µM

Q: And the “Conc of Me-Cbl” value ([2]; challenge 50 mg/mL, ethanol 15%, PG 20%, Day 1)?
A: 15490 µg/mL

Q: And the “Conc of Me-Cbl” value ([2]; challenge 50 mg/mL, ethanol 15%, PG 20%, Day 3)?
A: 15450 µg/mL

Q: And the “Conc of Me-Cbl” value ([2]; challenge 50 mg/mL, ethanol 20%, PG 0%, Day 0)?
A: 58020 µg/mL

Q: What about the “Conc of Me-Cbl” value ([2]; challenge 50 mg/mL, ethanol 20%, PG 0%, Day 0 reading) of the same compound?
A: 43160 µM

Q: What about the “Conc of Me-Cbl” value ([2]; challenge 50 mg/mL, ethanol 20%, PG 0%, Day 3) of the same compound?
A: 10350 µg/mL

Q: And the “Conc of Me-Cbl” value ([2]; challenge 50 mg/mL, ethanol 20%, PG 40%, Day 1)?
A: 51150 µg/mL

Q: And the “Conc of Me-Cbl” value ([2]; challenge 50 mg/mL, ethanol 20%, PG 40%, Day 3)?
A: 48120 µg/mL
